{
  "source": "paper PMC10686834",
  "about": "“Targeting myeloid chemotaxis to reverse prostate cancer therapy resistance” (Nature, 2023)",
  "system": "patients with ARSI-resistant mCRPC",
  "assay": "Phase 1 trial of AZD5069 plus enzalutamide: safety and tolerability (DLTs, treatment-emergent adverse events, NCI-CTCAE v.4.0)",
  "type": "in vivo",
  "from_the_text": "The primary trial objective was to evaluate the safety and tolerability of the combination. Key secondary objectives were to evaluate pharmacokinetic–pharmacodynamic parameters and antitumour activity.\nEligible patients were consenting patients aged ≥18 years, who had mCRPC with histologically confirmed prostate adenocarcinoma histology, documented cancer progression at the time of trial entry by Response Evaluation Criteria in Solid Tumors (v.1.1) and/or Prostate Cancer Working Group 2 criteria, and PSA of ≥10 ng ml^−1 at screening.\nThe dose-escalation phase used a rule-based 3 + 3 design, with an initial three patients enrolled per dose level. If none of the first three patients experienced a DLT, dose escalation proceeded to the next dose level. […] If fewer than two of six patients at any dose level experienced a DLT, dose escalation continued to the next level. If at least two out of up to six patients experienced a DLT, dose escalation stopped and this dose level was defined as the maximum administered dose. Once this maximum administered dose was defined, the maximum tolerated dose (MTD) was confirmed at the dose level below the maximum administered dose. At least six evaluable patients were required to establish the MTD at a specific dose level. […] Intra-patient dose escalation was not permitted. Start of dosing between the first and second patient enrolled to each dose level was staggered by 1 week. Once the MTD was determined in the phase 1 study, the recommended phase 2 dose was determined on the basis of available data, including but not limited to safety and response.\nDLTs were defined as described in the study protocol. […] Prophylaxis with growth factor support or antipyretics were not permitted. Investigators determined whether an adverse event was related to the study drugs. If a patient experienced clinically significant and/or unacceptable toxicity, including a DLT, not attributable to the disease or disease-related processes, dosing was interrupted or the dose was reduced and supportive therapy was administered as required.",
  "note": "“Also recorded” adds a separate entry of the source.",
  "data": [
    {"smiles": "C[C@@H](Oc1cc(NS(=O)(=O)N2CCC2)nc(SCc2cccc(F)c2F)n1)[C@@H](O)CO", "note": "[AZD5069]", "values": [
      {"measurement": "TEAE Anemia, All G", "setting": "AZD5069 40 mg BD (n=3)", "result": "1 (33) n (%)"},
      {"measurement": "TEAE Anemia, G≥3", "setting": "AZD5069 40 mg BD (n=3)", "result": "0 (0) n (%)"},
      {"measurement": "TEAE Aphasia, All G", "setting": "AZD5069 40 mg BD (n=3)", "result": "0 (0) n (%)"},
      {"measurement": "TEAE Aphasia, G≥3", "setting": "AZD5069 40 mg BD (n=3)", "result": "0 (0) n (%)"},
      {"measurement": "TEAE Arthralgia, All G", "setting": "AZD5069 40 mg BD (n=3)", "result": "0 (0) n (%)"},
      {"measurement": "TEAE Arthralgia, G≥3", "setting": "AZD5069 40 mg BD (n=3)", "result": "0 (0) n (%)"},
      {"measurement": "TEAE Aspartate aminotransferase increased, All G", "setting": "AZD5069 40 mg BD (n=3)", "result": "0 (0) n (%)"},
      {"measurement": "TEAE Aspartate aminotransferase increased, G≥3", "setting": "AZD5069 40 mg BD (n=3)", "result": "0 (0) n (%)"},
      {"measurement": "TEAE Constipation, All G", "setting": "AZD5069 40 mg BD (n=3)", "result": "0 (0) n (%)"},
      {"measurement": "TEAE Constipation, G≥3", "setting": "AZD5069 40 mg BD (n=3)", "result": "0 (0) n (%)"},
      {"measurement": "TEAE Death, All G", "setting": "AZD5069 40 mg BD (n=3)", "result": "0 (0) n (%)"},
      {"measurement": "TEAE Death, G≥3", "setting": "AZD5069 40 mg BD (n=3)", "result": "0 (0) n (%)"},
      {"measurement": "TEAE Decreased appetite, All G", "setting": "AZD5069 40 mg BD (n=3)", "result": "0 (0) n (%)"},
      {"measurement": "TEAE Decreased appetite, G≥3", "setting": "AZD5069 40 mg BD (n=3)", "result": "0 (0) n (%)"},
      {"measurement": "TEAE Diarrhoea, All G", "setting": "AZD5069 40 mg BD (n=3)", "result": "0 (0) n (%)"},
      {"measurement": "TEAE Diarrhoea, G≥3", "setting": "AZD5069 40 mg BD (n=3)", "result": "0 (0) n (%)"},
      {"measurement": "TEAE Dry skin, All G", "setting": "AZD5069 40 mg BD (n=3)", "result": "0 (0) n (%)"},
      {"measurement": "TEAE Dry skin, G≥3", "setting": "AZD5069 40 mg BD (n=3)", "result": "0 (0) n (%)"},
      {"measurement": "TEAE Fatigue, All G", "setting": "AZD5069 40 mg BD (n=3)", "result": "0 (0) n (%)"},
      {"measurement": "TEAE Fatigue, G≥3", "setting": "AZD5069 40 mg BD (n=3)", "result": "0 (0) n (%)"},
      {"measurement": "TEAE Headache, All G", "setting": "AZD5069 40 mg BD (n=3)", "result": "0 (0) n (%)"},
      {"measurement": "TEAE Headache, G≥3", "setting": "AZD5069 40 mg BD (n=3)", "result": "0 (0) n (%)"},
      {"measurement": "TEAE Hypophosphataemia, All G", "setting": "AZD5069 40 mg BD (n=3)", "result": "0 (0) n (%)"},
      {"measurement": "TEAE Hypophosphataemia, G≥3", "setting": "AZD5069 40 mg BD (n=3)", "result": "0 (0) n (%)"},
      {"measurement": "TEAE Nausea, All G", "setting": "AZD5069 40 mg BD (n=3)", "result": "1 (33) n (%)"},
      {"measurement": "TEAE Nausea, G≥3", "setting": "AZD5069 40 mg BD (n=3)", "result": "0 (0) n (%)"},
      {"measurement": "TEAE Neutrophil decreased, All G", "setting": "AZD5069 40 mg BD (n=3)", "result": "2 (67) n (%)"},
      {"measurement": "TEAE Neutrophil decreased, G≥3", "setting": "AZD5069 40 mg BD (n=3)", "result": "0 (0) n (%)"},
      {"measurement": "TEAE Oedema genital, All G", "setting": "AZD5069 40 mg BD (n=3)", "result": "0 (0) n (%)"},
      {"measurement": "TEAE Oedema genital, G≥3", "setting": "AZD5069 40 mg BD (n=3)", "result": "0 (0) n (%)"},
      {"measurement": "TEAE Platelet decreased, All G", "setting": "AZD5069 40 mg BD (n=3)", "result": "0 (0) n (%)"},
      {"measurement": "TEAE Platelet decreased, G≥3", "setting": "AZD5069 40 mg BD (n=3)", "result": "0 (0) n (%)"},
      {"measurement": "TEAE Pruritus, All G", "setting": "AZD5069 40 mg BD (n=3)", "result": "1 (33) n (%)"},
      {"measurement": "TEAE Pruritus, G≥3", "setting": "AZD5069 40 mg BD (n=3)", "result": "0 (0) n (%)"},
      {"measurement": "TEAE Skin infection, All G", "setting": "AZD5069 40 mg BD (n=3)", "result": "0 (0) n (%)"},
      {"measurement": "TEAE Skin infection, G≥3", "setting": "AZD5069 40 mg BD (n=3)", "result": "0 (0) n (%)"},
      {"measurement": "TEAE Vomiting, All G", "setting": "AZD5069 40 mg BD (n=3)", "result": "1 (33) n (%)"},
      {"measurement": "TEAE Vomiting, G≥3", "setting": "AZD5069 40 mg BD (n=3)", "result": "0 (0) n (%)"},
      {"measurement": "TEAE White blood cell decreased, All G", "setting": "AZD5069 40 mg BD (n=3)", "result": "0 (0) n (%)"},
      {"measurement": "TEAE White blood cell decreased, G≥3", "setting": "AZD5069 40 mg BD (n=3)", "result": "0 (0) n (%)"},
      {"measurement": "dose-limiting toxicity (DLT)", "setting": "AZD5069 40 mg BD to 320 mg BD plus enzalutamide 160 mg OD, 21 patients evaluable for DLTs", "result": "did not observe any DLT; also recorded: without dose-limiting toxicity"},
      {"measurement": "TEAE Anemia, All G", "setting": "AZD5069 80 mg BD (n=4)", "result": "0 (0) n (%)"},
      {"measurement": "TEAE Anemia, G≥3", "setting": "AZD5069 80 mg BD (n=4)", "result": "0 (0) n (%)"},
      {"measurement": "TEAE Aphasia, All G", "setting": "AZD5069 80 mg BD (n=4)", "result": "0 (0) n (%)"},
      {"measurement": "TEAE Aphasia, G≥3", "setting": "AZD5069 80 mg BD (n=4)", "result": "0 (0) n (%)"},
      {"measurement": "TEAE Arthralgia, All G", "setting": "AZD5069 80 mg BD (n=4)", "result": "0 (0) n (%)"},
      {"measurement": "TEAE Arthralgia, G≥3", "setting": "AZD5069 80 mg BD (n=4)", "result": "0 (0) n (%)"},
      {"measurement": "TEAE Aspartate aminotransferase increased, All G", "setting": "AZD5069 80 mg BD (n=4)", "result": "0 (0) n (%)"},
      {"measurement": "TEAE Aspartate aminotransferase increased, G≥3", "setting": "AZD5069 80 mg BD (n=4)", "result": "0 (0) n (%)"},
      {"measurement": "TEAE Constipation, All G", "setting": "AZD5069 80 mg BD (n=4)", "result": "0 (0) n (%)"},
      {"measurement": "TEAE Constipation, G≥3", "setting": "AZD5069 80 mg BD (n=4)", "result": "0 (0) n (%)"},
      {"measurement": "TEAE Death, All G", "setting": "AZD5069 80 mg BD (n=4)", "result": "0 (0) n (%)"},
      {"measurement": "TEAE Death, G≥3", "setting": "AZD5069 80 mg BD (n=4)", "result": "0 (0) n (%)"},
      {"measurement": "TEAE Decreased appetite, All G", "setting": "AZD5069 80 mg BD (n=4)", "result": "0 (0) n (%)"},
      {"measurement": "TEAE Decreased appetite, G≥3", "setting": "AZD5069 80 mg BD (n=4)", "result": "0 (0) n (%)"},
      {"measurement": "TEAE Diarrhoea, All G", "setting": "AZD5069 80 mg BD (n=4)", "result": "0 (0) n (%)"},
      {"measurement": "TEAE Diarrhoea, G≥3", "setting": "AZD5069 80 mg BD (n=4)", "result": "0 (0) n (%)"},
      {"measurement": "TEAE Dry skin, All G", "setting": "AZD5069 80 mg BD (n=4)", "result": "0 (0) n (%)"},
      {"measurement": "TEAE Dry skin, G≥3", "setting": "AZD5069 80 mg BD (n=4)", "result": "0 (0) n (%)"},
      {"measurement": "TEAE Fatigue, All G", "setting": "AZD5069 80 mg BD (n=4)", "result": "1 (25) n (%)"},
      {"measurement": "TEAE Fatigue, G≥3", "setting": "AZD5069 80 mg BD (n=4)", "result": "0 (0) n (%)"},
      {"measurement": "TEAE Headache, All G", "setting": "AZD5069 80 mg BD (n=4)", "result": "0 (0) n (%)"},
      {"measurement": "TEAE Headache, G≥3", "setting": "AZD5069 80 mg BD (n=4)", "result": "0 (0) n (%)"}
    ]}
  ]
}
